Measured values reported in US20200270216A1, “COMPOSITIONS AND METHODS FOR INHIBITING N-SMASE2” (The Regents of the University of California, priority 2017, published 2020).
Entries after “also recorded” stand apart in the source; their conditions may differ.

Experiments:
Type in all cases: cell-based
[1] = tested on: P2-seeded tau biosensor cells; test: EV purification and characterization (immunoblot of exosome markers, nanoparticle tracking analysis)
Excerpt: Extracellular vesicles (EVs) were purified from the cell culture medium using Exo-Quick-TC exosome purification kit (SBI, EXOTC10A-1) according to the manufacturing instructions. Immunoblot analysis of the EV fractions was done by 10-20% Tris-Glycine gel in non-reduced conditions, transferred to PVDF membrane and probed with antibodies against CD63 (ThermoFisher, 10628D), followed by HRP-conjugated secondary antibodies. Chemiluminescent signals were obtained with Super Signal West Femto substrate (Thermo Scientific Pierce 34,095) and detected using a BioSpectrum 600 imaging system and quantified using VisionWorks Version 6.6A software (UVP; Upland, Calif.). […] Inhibition of nSMase2 activity in cell extracts of confluent tau biosensors was confirmed by nSMase2 activity assay analogous to the one described in Example 2.
Our analysis confirmed that nSMase2 inhibitors suppress release of EVs from P2-seeded tau biosensor cells. […] EV samples purified from the same number of donor cells were analyzed per each group. Purified EVs were imaged by transmission electron microscopy (FIG. 5C). Size distribution of particles in the samples were assessed by nanoparticle tracking analysis (FIG. 5D). WB analysis for exosome markers also confirmed decrease in the exosome-specific marker expression (FIG. 5E).
Donor cells were grown in medium with exosome-depleted FBS (ThermoFisher, A2720803) for 48 hours with or without compounds, cell culture medium was collected and EVs purified using ExoQuick-TC kit (SBI biosciences). For quality control, small amounts of purified EVs were fixed on a copper mesh in glutaraldehyde/paraformaldehyde solution, stained with 2% uranyl acetate solution and imaged on a JEOL 100CX electron microscope at 29,000 times magnification. […] Chemiluminescent signals were obtained with Super Signal West Femto substrate (Thermo Scientific Pierce 34095) and detected using a BioSpectrum 600 imaging system and quantified using VisionWorks Version 6.6A software (UVP; Upland, Calif.).

[2] = tested on: HEK293T Tau RD P301S FRET biosensor cells; test: EV-mediated tau transfer assay
Method: For EV (extracellular vesicles)-mediated tau transfer assay, donor cells, transduced with AD-brain derived synaptosomal extracts (P2) or synthetic K18 seeds, were cultured for 48 hours in exosome-free medium with or without indicated concentration of tested compounds or DMSO for control, then medium was collected and EVs were purified using Exo-Quick-TC exosome purification kit (SBI, EXOTC10A-1) according to the manufacturing instructions. Naive recipient cells were plated at density 30,000 cells per well (96-well plates), grown for 12 hour in regular medium and then medium was exchanged to exosome-depleted medium, contained exosomes purified from donor cells (each well of recipients received amount of exosomes purified from one well of donor cells). Recipient cells were cultured in the presence of donor cell exosomes for 60 hrs. EV-mediated transfer assay scheme is presented at the FIG. 5A (right).
HEK293T Tau RD P301S FRET biosensor cells were growing in the Dulbecco's Modified Eagle's medium (DMEM) with higher glucose, 10% FBS, and 1% Penicillin-streptomycin at 37° C./5% CO2. Cells were plated in 10-sm dishes (3 million cells per dish in the regular medium) and grown for 12 hrs. Cells assigned to be donors were transduced with pulled synaptosomal (P2) extracts from AD cases using lipofectamine 2000, according to the published literature with minor modifications. We used 35 μg of pulled AD or control (NL) material per one 10-sm dish (TableS1). Defrosted P2 extracts were sonicated in water bath sonicator for 10 minutes, and diluted with Opti-MEM serum reduced medium to the final volume 200 μL per 10-sm dish. In a separate tube lipofectamine 2000 were combined with Opti-MEM medium, based on 25 μl of lipofectamine and 175 μL OptiMEM medium per each 10-sm dish, and incubated for 10 minutes at room temperature (RT). Each P2 or NL extract mix (200 μl) and prepared lipofectamine 2000 mix (200 μl) were combined and incubated for 20 min at RT. Each 10-sm dish with cell received 400 μl of the final liposomes in the total volume of medium 5 ml per dish. Cultures treated with equal amount of empty liposomes were used as an additional control group. Cells were incubated with liposomes for 20 hrs.
For “D+R” assay recipient cells were labeled with 1,1′-Dioctadecyl-3,3,3′,3′-tetramethylindodicarbocyanine (DiD) according to manufacturer's protocol (ThermoFisher V22887) on day 2. On day 3, donor cells were trypsinized (0.05% Trypsin/EDTA), washed with fresh exosome-free medium contained 10% of exosome-depleted FBS (ThermoFisher, A2720803). DiD-labeled recipient cells were also trypsinized and washed in exosome-free medium. […] FRET signal was detected using LSRII flow cytometer (BD biosciences). […]

[3] = tested on: HEK293T Tau RD P301S FRET biosensors; test: P2-induced tau aggregation in Tau P301S FRET biosensors (microscopy, flow cytometry)
Excerpt: The tau biosensors were HEK293T cells, with stably expressed tau repeat domains with disease-associated mutation (P301S) fused to either CFP or YFP (HEK293T Tau RD P301S FRET biosensors) were transduced with pulled synaptosomal (P2) extracts from AD brains using lipofectamine 2000. Cultures treated with equal amount of empty liposomes were used as a control. […] Cells were imaged after 24 hrs using automated microscope imaging system (Lionheart FX) equipped with 20× objective and CFP-YFP FRET Image filter cube.
After sixty hours treatment, cells and cell medium were collected. Cells were prepared for flow cytometry and FRET signal was detected using LSRII flow cytometer (BD biosciences). Cells were back gated onto forward scatter versus side scatter to insure a single cell analysis, 5,000 cells were collected within the gate. FRET negative and FRET-positive cell populations were defined as previously described.

With `O=c1[nH]c(=S)[nH]c(-c2ccccc2)c1Cc1c(O)ccc2ccccc12` [cambinol] the “levels of exosomal marker CD63 in cell medium EV fraction” value ([1]; 10 μM, 60 hours, Western blot (FIG. 3C)) was “Decrease”, the “release of EVs from P2-seeded donor cells” value ([1]; 50 μM, 48 hours, nanoparticle tracking analysis) was “released less EVs; also recorded: more effective than the nSMase2 inhibitor GW4869” and the “EV-mediated transfer of tau to recipient cells” value ([2]; P2-seeded donor cells treated at 50 μM, 48 hours) was “decrease; also recorded: more effective than the nSMase2 inhibitor GW4869”. The “reduction of EV-mediated transfer of tau seeds to naive recipient cells” value ([2]; inhibitor treatment of donor cells) was 8 times, the “FRET-positive tau aggregates, microscopy” value ([3]; 10 μM, imaged after 24 hrs, vs DMSO (FIG. 3A)) was “visibly decreased; also recorded: Decrease in the tau aggregation” and the “FRET-positive signal (integrated FRET density), flow cytometry” value ([3]; 10 uM, sixty hours treatment (FIG. 3B)) was “significant decrease”.
